Measured values: US10519177B2, “Heterocyclic compounds and uses thereof” (Plexxikon Inc., priority 2013, dated 2019)

Experiments:
bromodomain = assay: at least one of the bromodomain cell assays of Example 57; type: cell-based; conditions: at least one of the bromodomain cell assays described in Example 57; read-out: IC50 in at least one of the bromodomain cell assays
MV-4-11 cells = assay: Oncology cell growth assay MV-4-11 (CellTiter Glo); type: cell-based; conditions: Homo sapiens, MV4-11, 72 h; read-out: Cell activity (IC50 μM) MV-4-11 3d-Growth
How it was run: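 MV-4-11 AML cells (MLL-AF4), 3000 per well, exposed to 8-point 1:3 compound titration from 10 μM top concentration (0.2% DMSO) for 72 h. Viability by CellTiter Glo luminescence, normalized to DMSO controls; pIC50 from four-parameter curve fit.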

BRD4-BD1 (44-164) = BRD4-BD1 (44-164) (Homo sapiens (Human), UniProt O60885); assay: Alphascreen binding assay BRD4-BD1; conditions: BRD4(1) H4; read-out: Biochemical activity (IC50 μM) BRD4(1) H4
How it was run: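 His-tagged E. coli-expressed BRD4 BD1 (44-164) or BD1-BD2 (1-477) incubated 1 h at room temperature with biotinylated tetra-acetylated histone H4 1-21 peptide and compound in HEPES pH 7.5, NaCl, BSA, Triton X-100, DTT buffer. Ni-chelate/streptavidin AlphaScreen beads (7.5 µg/ml) added, read after 30 min; pIC50 from four-parameter fit.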

BRD4-BD12 (1-477) = BRD4-BD12 (1-477) (Homo sapiens (Human), UniProt O60885); assay: Alphascreen binding assay BRD4-BD12; conditions: BRD4(1 2) H4; read-out: Biochemical activity (IC50 μM) BRD4(1 2) H4
How it was run: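 First, compound was preincubated 1 h at room temperature with the His-tagged BRD4 protein (BD1 44-164 or tandem BD12 1-477) and acetylated H4 peptide. Next, donor and acceptor beads were added at 7.5 μg/ml final. After 30 min, AlphaScreen emission was recorded.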

Structure (SMILES)	IC50 (bromodomain) [µM]	IC50 (MV-4-11 cells) [µM]	IC50 (BRD4-BD1 (44-164)) [µM]	IC50 (BRD4-BD12 (1-477)) [µM]
COC(=O)c1ccc(-c2cn(CC3CCC(F)(F)CC3)c3cc(-c4c(C)noc4C)cnc23)cc1 [P-0330, methyl 4-[1-[(4,4-difluorocyclohexyl)methyl]-6-(3,5-dimethylisoxazol-4-yl)pyrrolo[3,2-b]pyridin-3-yl]benzoate]	< 10	< 1	< 1	< 1
Cc1nc(C)c(-c2cnc3ccn(CC4CCC(F)(F)CC4)c3c2)s1 [P-0294, 5-[1-[(4,4-difluorocyclohexyl)methyl]pyrrolo[3,2-b]pyridin-6-yl]-2,4-dimethyl-thiazole]	< 10	1 to 10	10 to 200	< 1
Cc1nnn(C)c1-c1cnc2c(-c3cnn(C)c3)cn(CC3CCC(F)(F)CC3)c2c1 [P-0310, 1-[(4,4-difluorocyclohexyl)methyl]-6-(3,5-dimethyltriazol-4-yl)-3-(1-methylpyrazol-4-yl)pyrrolo[3,2-b]pyridine]	< 10	< 1	< 1	< 1
